According to US20230009626A1 (ICHNOS SCIENCES S.A., priority 2018, published 2023):

Molecular target: HPK1 (MAP4K1) (Homo sapiens, UniProt Q92918)
Experiment: FRET Assay for HPK1 (MAP4K1): one step binding assay, displacement of labeled tracer
Details: for inhibition at 1 µM: 1 μM compound; for inhibition at 1 µM / inhibition at 10 µM: FRET ratio 665/620, percent of control; for inhibition at 10 µM: 10 μM compound; for IC50: dose response curve, nonlinear regression
Method in brief: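 TR-FRET tracer-displacement binding assay. GST-tagged HPK1 (10 nM) and Eu-anti-GST antibody (4 nM) were pre-incubated with compound on ice for 15 min in 50 mM HEPES pH 7.5, 10 mM MgCl2, 1 mM EGTA, 0.01% Brij-35 (3% DMSO final). Kinase Tracer 222 (20 nM) was then added for 1 h at room temperature. IC50 came from nonlinear regression of percent of control; percent inhibition was also given at 1.0 and 10.0 μM.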

Sequence of HPK1 (MAP4K1) (Q92918 whole entry): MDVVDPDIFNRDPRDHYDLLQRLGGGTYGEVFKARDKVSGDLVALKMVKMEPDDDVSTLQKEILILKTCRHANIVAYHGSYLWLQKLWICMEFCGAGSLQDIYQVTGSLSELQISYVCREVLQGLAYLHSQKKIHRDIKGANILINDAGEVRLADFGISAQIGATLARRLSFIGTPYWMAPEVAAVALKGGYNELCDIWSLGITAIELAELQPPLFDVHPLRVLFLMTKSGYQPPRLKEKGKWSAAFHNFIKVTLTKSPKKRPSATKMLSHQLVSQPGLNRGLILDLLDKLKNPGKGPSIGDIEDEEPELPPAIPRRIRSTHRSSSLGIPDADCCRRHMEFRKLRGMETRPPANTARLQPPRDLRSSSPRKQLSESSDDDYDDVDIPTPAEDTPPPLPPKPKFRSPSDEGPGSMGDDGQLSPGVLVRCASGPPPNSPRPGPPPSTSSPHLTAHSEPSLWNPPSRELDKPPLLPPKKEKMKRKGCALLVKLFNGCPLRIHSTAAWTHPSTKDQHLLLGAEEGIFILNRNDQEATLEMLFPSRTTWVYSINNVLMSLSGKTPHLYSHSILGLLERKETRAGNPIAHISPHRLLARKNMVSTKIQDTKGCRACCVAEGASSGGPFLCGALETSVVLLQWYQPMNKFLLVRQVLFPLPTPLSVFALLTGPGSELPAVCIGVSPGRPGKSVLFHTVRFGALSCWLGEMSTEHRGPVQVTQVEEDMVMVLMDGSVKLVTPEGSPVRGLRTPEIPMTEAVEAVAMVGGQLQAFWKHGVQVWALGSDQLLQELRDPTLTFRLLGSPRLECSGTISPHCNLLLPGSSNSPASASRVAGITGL

Row | inhibition at 1 µM [%] | inhibition at 10 µM [%] | IC50 [nM] | SMILES
1 | 72.5 | 79.5 | < 50 | C/C(Nc1cc(C)n(CCC(C)(C)O)n1)=C1/C(=O)Nc2cnc(-c3cnccc3C)cc21 [Example 183, (Z)-3-(1-((1-(3-Hydroxy-3-methylbutyl)-5-methyl-1H-pyrazol-3-yl)amino)ethylidene)-5-(4-methylpyridin-3-yl)-1H-pyrrolo[2,3-c]pyridin-2(3H)-one]
2 | 70.3 | 75.2 | < 50 | C/C(Nc1cc(C)n(C[C@H](C)O)n1)=C1/C(=O)Nc2cnc(-c3cnccc3C)cc21 [Example 184, (S,Z)-3-(1-((1-(2-Hydroxypropyl)-5-methyl-1H-pyrazol-3-yl)amino)ethylidene)-5-(4-methylpyridin-3-yl)-1H-pyrrolo[2,3-c]pyridin-2(3H)-one]
3 | 73.2 | 73.9 | < 50 | C/C(Nc1cc(C)n(C(F)F)n1)=C1/C(=O)Nc2cnc(-c3cnccc3C)cc21 [Example 185, (Z)-3-(1-((1-(Difluoromethyl)-5-methyl-1H-pyrazol-3-yl)amino)ethylidene)-5-(4-methylpyridin-3-yl)-1H-pyrrolo[2,3-c]pyridin-2(3H)-one]
4 | 70.9 | 72.2 | < 50 | C/C(Nc1cc(C)n(CC(C)C)n1)=C1/C(=O)Nc2cnc(-c3cnccc3C)cc21 [Example 186, (Z)-3-(1-((1-Isobutyl-5-methyl-1H-pyrazol-3-yl)amino)ethylidene)-5-(4-methylpyridin-3-yl)-1H-pyrrolo[2,3-c]pyridin-2(3H)-one]
5 | 66.4 | 19.6 |  | C/C(Nc1cnn(C)c1)=C1/C(=O)Nc2cnc(-c3cc(C#N)ccc3C)cc21 [Example 187, (Z)-4-Methyl-3-(3-(1-((1-methyl-1H-pyrazol-4-yl)amino)ethylidene)-2-oxo-2,3-dihydro-1H-pyrrolo[2,3-c]pyridin-5-yl)benzonitrile]
6 | 71 | 76 | < 50 | C/C(Nc1cc(C)n(C[C@@H](C)O)n1)=C1/C(=O)Nc2cnc(-c3cnccc3C)cc21 [Example 188, (R,Z)-3-(1-((1-(2-Hydroxypropyl)-5-methyl 1H-pyrazol-3-yl)amino)ethylidene)-5-(4-methylpyridin-3-yl)-1H-pyrrolo[2,3-c]pyridin-2(3H)-one]
7 | 73.5 | 76.9 | < 50 | C/C(Nc1cc(C)n(CC2CC2)n1)=C1/C(=O)Nc2cnc(-c3cnccc3C)cc21 [Example 189, (Z)-3-(1-((1-(cyclopropylmethyl)-5-methyl-1H-pyrazol-3-yl)amino)ethylidene)-5-(4-methylpyridin-3-yl)-1H-pyrrolo[2,3-c]pyridin-2(3H)-one]
8 | 52.4 | 68.6 | > 500 | C/C(Nc1cc(C)n(CC[C@@H](C)O)n1)=C1/C(=O)Nc2cnc(-c3cnccc3C)cc21 [Example 190, (R,Z)-3-(1-((1-(3-Hydroxybutyl)-5-methyl-1H-pyrazol-3-yl)amino)ethylidene)-5-(4-methylpyridin-3-yl)-1H-pyrrolo[2,3-c]pyridin-2(3H)-one]
9 | 69.6 | 82.2 | < 50 | C/C(Nc1cc(C)n(C)n1)=C1/C(=O)Nc2cnc(-c3c(C)cccc3F)cc21 [Example 191, (Z)-3-(1-((1,5-dimethyl-1H-pyrazol-3-yl)amino)ethylidene)-5-(2-fluoro-6-methylphenyl)-1H-pyrrolo[2,3-c]pyridin-2(3H)-one]
10 | 62.1 | 68.3 | < 50 | C/C(Nc1cc2n(n1)CCOC2)=C1/C(=O)Nc2cnc(-c3c(C)cccc3F)cc21 [Example 192, (Z)-3-(1-((6,7-Dihydro-4H-pyrazolo[5,1-c][1,4]oxazin-2-yl)amino)ethylidene)-5-(2-fluoro-6-methylphenyl)-1H-pyrrolo[2,3-c]pyridin-2(3H)-one]
11 | 78.2 | 74.5 | < 50 | C/C(Nc1cc2n(n1)CCOC2)=C1/C(=O)Nc2ccc(-c3cnccc3C)cc21 [Example 193, (Z)-3-(1-((6,7-Dihydro-4H-pyrazolo[5,1-c][1,4]oxazin-2-yl)amino)ethylidene)-5-(4-methylpyridin-3-yl)indolin-2-one]
12 | 68.6 | 66.6 | < 50 | C/C(Nc1cc(C)n(C)n1)=C1/C(=O)Nc2ccc(-c3cnccc3C)cc21 [Example 194, (Z)-3-(1-((1,5-Dimethyl-1H-pyrazol-3-yl)amino)ethylidene)-5-(4-methylpyridin-3-yl)indolin-2-one]
13 | 25.1 | 61.1 |  | C/C(Nc1cc(C)n(CC[C@H](C)O)n1)=C1/C(=O)Nc2cnc(-c3cnccc3C)cc21 [Example 195, (S,Z)-3-(1-((1-(3-Hydroxybutyl)-5-methyl-1H-pyrazol-3-yl)amino)ethylidene)-5-(4-methylpyridin-3-yl)-1H-pyrrolo[2,3-c]pyridin-2(3H)-one]
14 | 65 | 66.3 | < 50 | C/C(Nc1ccn(CC[C@H](C)O)n1)=C1/C(=O)Nc2cnc(-c3cnccc3C)cc21 [Example 196, (S,Z)-3-(1-((1-(3-hydroxybutyl)-1H-pyrazol-3-yl)amino)ethylidene)-5-(4-methylpyridin-3-yl)-1H-pyrrolo[2,3-c]pyridin-2(3H)-one]
15 | 69.8 | 70.1 | < 50 | C/C(Nc1cc(C)n(C(C)(C)C#N)n1)=C1/C(=O)Nc2cnc(-c3cnccc3C)cc21 [Example 197, (Z)-2-Methyl-2-(5-methyl-3-((1-(5-(4-Methylpyridin-3-yl)-2-oxo-1H-pyrrolo[2,3-c]pyridin-3(2H)-ylidene)ethyl)amino)-1H-pyrazol-1-yl)propanenitrile]
16 | 73.8 | 71.1 | < 50 | C/C(Nc1cc(C)n([C@H](C)C#N)n1)=C1/C(=O)Nc2cnc(-c3cnccc3C)cc21 [Example 198, (R,Z)-2-(5-Methyl-3-((1-(5-(4-methylpyridin-3-yl)-2-oxo-1H-pyrrolo[2,3-c]pyridin-3(2H)-ylidene)ethyl)amino)-1H-pyrazol-1-yl)propanenitrile]
17 | 71.7 |  | < 50 | C/C(Nc1cc(C)n([C@H](C)C#N)n1)=C1/C(=O)Nc2cnc(-c3c(C)cccc3F)cc21 [Example 199, (R,Z)-2-(3-((1-(5-(2-Fluoro-6-methylphenyl)-2-oxo-1H-pyrrolo[2,3-c]pyridin-3(2H)-ylidene)ethyl)amino)-5-methyl-1H-pyrazol-1-yl)propanenitrile]
18 | 70.7 | 71.9 | < 50 | C/C(Nc1cc(C)n(CC(C)(C)O)n1)=C1/C(=O)Nc2cnc(-c3c(C)cccc3F)cc21 [Example 200, (Z)-5-(2-Fluoro-6-methylphenyl)-3-(1-((1-(2-hydroxy-2-methylpropyl)-5-methyl-1H-pyrazol-3-yl)amino)ethylidene)-1H-pyrrolo[2,3-c]pyridin-2(3H)-one]
19 | 65.7 | 73.6 | < 50 | C/C(Nc1cc(C)n(CC(F)F)n1)=C1/C(=O)Nc2cnc(-c3c(C)cccc3F)cc21 [Example 201, (Z)-3-(1-((1-(2,2-Difluoroethyl)-5-methyl-1H-pyrazol-3-yl)amino)ethylidene)-5-(2-fluoro-6-methylphenyl)-1H-pyrrolo[2,3-c]pyridin-2(3H)-one]
